Laboratory results taken from patent US20240108618A1, “KRAS G12C INHIBITOR DOSING REGIMENS” (Eli Lilly and Company, priority 2022, published 2024).

System: KRAS G12C-mutant advanced solid tumors
Assay: NCT04956640 Phase 1a monotherapy clinical response (BOR, ORR, DCR, DOR, TTR, % change from baseline, treatment duration)
Assay type: in vivo, human
Details: for Best overall response (BOR): Complete Response (CR), % / Best overall response (BOR): No Evaluable (NE), % / Best overall response (BOR): Partial Response (PR), % / Best overall response (BOR): Partial Response, pending confirmation and ongoing (uPR), % / Best overall response (BOR): Progressive Disease (PD), % / Best overall response (BOR): Stable Disease (SD), % / Disease control rate (CR + PR + uPR + SD), % / Objective response rate (CR + PR), % / Objective response rate, confirmed and unconfirmed (CR + PR + uPR), %: Phase 1a NSCLC patients; for Duration of response (DOR) 6 to <9 months / Duration of response (DOR) <6 months / Time to response (TTR) 2 to <4 months / Time to response (TTR) 4 to <6 months / Time to response (TTR) 6 to <9 months / Time to response (TTR) <2 months: Phase 1a responders
Procedure: The term “BOR” as used herein refers to best overall response based on investigator assessments using RECIST criteria (version 1.1). The minimum duration for BOR of SD is at least 6 weeks after the date of first dose of study drug.
The term “DOR” as used herein refers to duration of response, wherein DOR in months is calculated as the event or censoring date minus the response start date plus 1 day divided by 30.4375.
The term “ORR” as used herein refers to objective response rate, wherein objective response rate is the proportion of patients with BOR of CR or PR. Objective response rate, unconfirmed, is the proportion of patients with BOR of CR, PR, or uPR.
The term “TTR” as used herein refers to time to response, wherein TTR in months is calculated as response start date minus first dose date plus 1 day divided by 30.4375.
NCT04956640 includes Phase 1a dose escalation (Part A of NCT04956640, see Table 3) followed by a Phase 1b dose expansion (Parts B to E of NCT04956640, see Table 4). […] Phase 1b dose expansion will include 12 cohorts (See Table 4) to further evaluate safety and clinical activity.

[1] = Without Prior KRAS G12Ci (N = 8)
[2] = starting dose 50 mg BID (N = 14)
[3] = starting dose 100 mg BID (N = 24)
[4] = starting dose 150 mg BID (N = 25)
[5] = starting dose 200 mg BID (N = 12)

## C=CC(=O)N1CCN2C(=O)c3cc(F)c(-c4ccc(F)c5sc(N)c(C#N)c45)c(Cl)c3OCC[C@H]2C1 (single isomer, unassigned) [Formula I]
CRC
  Best observed response PD (unconfirmed and confirmed), patients: 1
  Best observed response PR (unconfirmed and confirmed), patients: 1
  Best observed response SD, patients: 13
NSCLC naïve to KRAS G12Ci
  Best observed response PD (unconfirmed and confirmed), patients: 1
  Best observed response SD, patients: 1
NSCLC with prior KRAS G12Ci
  Best observed response PD (unconfirmed and confirmed), patients: 3
  Best observed response PR (unconfirmed and confirmed), patients: 1
  Best observed response SD, patients: 3
PANC
  Best observed response PD (unconfirmed and confirmed), patients: 2
  Best observed response PR (unconfirmed and confirmed), patients: 2
  Best observed response SD, patients: 2
Total (N = 22)
  Best overall response (BOR): Complete Response (CR), %: (0.0) %
  Best overall response (BOR): No Evaluable (NE), %: (4.5) %
  Best overall response (BOR): Partial Response (PR), %: (18.2) %
  Best overall response (BOR): Partial Response, pending confirmation and ongoing (uPR), %: (0.0) %
  Best overall response (BOR): Progressive Disease (PD), %: (22.7) %
  Best overall response (BOR): Stable Disease (SD), %: (54.5) %
  Disease control rate (CR + PR + uPR + SD), %: (72.7) %
  Objective response rate (CR + PR), %: (18.2) %
  Objective response rate, confirmed and unconfirmed (CR + PR + uPR), %: (18.2) %
With Prior KRAS G12Ci (N = 14)
  Best overall response (BOR): Complete Response (CR), %: (0.0) %
  Best overall response (BOR): No Evaluable (NE), %: (7.1) %
  Best overall response (BOR): Partial Response (PR), %: (7.1) %
  Best overall response (BOR): Partial Response, pending confirmation and ongoing (uPR), %: (0.0) %
  Best overall response (BOR): Progressive Disease (PD), %: (28.6) %
  Best overall response (BOR): Stable Disease (SD), %: (57.1) %
  Disease control rate (CR + PR + uPR + SD), %: (64.3) %
  Objective response rate (CR + PR), %: (7.1) %
  Objective response rate, confirmed and unconfirmed (CR + PR + uPR), %: (7.1) %
[1]
  Best overall response (BOR): Complete Response (CR), %: (0.0) %
  Best overall response (BOR): No Evaluable (NE), %: (0.0) %
  Best overall response (BOR): Partial Response (PR), %: (37.5) %
  Best overall response (BOR): Partial Response, pending confirmation and ongoing (uPR), %: (0.0) %
  Best overall response (BOR): Progressive Disease (PD), %: (12.5) %
  Best overall response (BOR): Stable Disease (SD), %: (50.0) %
  Disease control rate (CR + PR + uPR + SD), %: (87.5) %
  Objective response rate (CR + PR), %: (37.5) %
  Objective response rate, confirmed and unconfirmed (CR + PR + uPR), %: (37.5) %
Total (N = 75)
  Duration of response (DOR) 6 to <9 months: 3 (15.8) n (%)
  Duration of response (DOR) <6 months: 16 (84.2) n (%)
  Time to response (TTR) 2 to <4 months: 2 (10.5) n (%)
  Time to response (TTR) 4 to <6 months: 2 (10.5) n (%)
  Time to response (TTR) 6 to <9 months: 1 (5.3) n (%)
  Time to response (TTR) <2 months: 14 (73.7) n (%)
[2]
  Duration of response (DOR) 6 to <9 months: 0 (0.0) n (%)
  Duration of response (DOR) <6 months: 2 (100.0) n (%)
  Time to response (TTR) 2 to <4 months: 0 (0.0) n (%)
  Time to response (TTR) 4 to <6 months: 0 (0.0) n (%)
  Time to response (TTR) 6 to <9 months: 0 (0.0) n (%)
  Time to response (TTR) <2 months: 2 (100.0) n (%)
[3]
  Duration of response (DOR) 6 to <9 months: 0 (0.0) n (%)
  Duration of response (DOR) <6 months: 7 (100.0) n (%)
  Time to response (TTR) 2 to <4 months: 1 (14.3) n (%)
  Time to response (TTR) 4 to <6 months: 0 (0.0) n (%)
  Time to response (TTR) 6 to <9 months: 1 (14.3) n (%)
  Time to response (TTR) <2 months: 5 (71.4) n (%)
[4]
  Duration of response (DOR) 6 to <9 months: 2 (33.3) n (%)
  Duration of response (DOR) <6 months: 4 (66.7) n (%)
  Time to response (TTR) 2 to <4 months: 0 (0.0) n (%)
  Time to response (TTR) 4 to <6 months: 2 (33.3) n (%)
  Time to response (TTR) 6 to <9 months: 0 (0.0) n (%)
  Time to response (TTR) <2 months: 4 (66.7) n (%)
[5]
  Duration of response (DOR) 6 to <9 months: 1 (25.0) n (%)
  Duration of response (DOR) <6 months: 3 (75.0) n (%)
  Time to response (TTR) 2 to <4 months: 1 (25.0) n (%)
  Time to response (TTR) 4 to <6 months: 0 (0.0) n (%)
  Time to response (TTR) 6 to <9 months: 0 (0.0) n (%)
  Time to response (TTR) <2 months: 3 (75.0) n (%)
Phase 1a, Total (N = 75)
  Patients with best overall response of CR or PR: 19 (25.3) N′ (%)
